Results on 40 molecules are retold here after ChEMBL document CHEMBL5614424, “Natural Product-Inspired Discovery of Naphthoquinone-Furo-Piperidine Derivatives as Novel STAT3 Inhibitors for the Treatment of Triple-Negative Breast Cancer” (J Med Chem, 2024).

Series [1] relates to MDA-MB-231. As to the kind of experiment: Antiproliferative activity against human MDA-MB-231 cells assessed as cell viability incubated for 48 hrs measured after additional incubation with MTT. Format: functional, cell-based. Particulars: MDA-MB-231, 48 h.
Series [2] has as its system MDA-MB-468. As to the kind of experiment: Antiproliferative activity against human MDA-MB-468 cells assessed as cell viability incubated for 48 hrs measured after additional incubation with MTT. Format: functional, cell-based. Particulars: MDA-MB-468, 48 h.
The next series relates to L02. As to the kind of experiment: Antiproliferative activity against human L02 cells assessed as cell viability incubated for 48 hrs measured after additional incubation with MTT. It counts as functional, cell-based. The following applies: L02, 48 h.
Series [3] in a line: Antiproliferative activity against human MCF-10A cells assessed as cell viability incubated for 48 hrs measured after additional incubation with MTT. It counts as toxicity, cell-based.
Series [4] has as its target Signal transducer and activator of transcription 3 (Homo sapiens) (UniProt P40763). As to the kind of experiment: Suppression of STAT3 activation in human MDA-MB-231 cell assessed as decrease in phosphorylated STAT3 (p-STAT3 Tyr705) level at 3 uM measured after 24 hrs by Western blot analysis. Format: cell-based.
The target is the same in series [5]. Put plainly: Suppression of STAT3 activation in human MDA-MB-468 cell assessed as decrease in phosphorylated STAT3 (p-STAT3 Tyr705) level at 3 uM measured after 24 hrs by Western blot analysis. It counts as cell-based.
Series [6] concerns MDA-MB-231. Put plainly: Decrease in STAT3 level in human MDA-MB-231 cell at 3 uM measured after 24 hrs by Western blot analysis. It counts as functional, cell-based.
Series [7] relates to MDA-MB-468. Put plainly: Decrease in STAT3 level in human MDA-MB-468 cell at 3 uM measured after 24 hrs by Western blot analysis. Format: functional, cell-based. A general note: In western blotting, separated proteins are transferred to a membrane and probed.

Each structure is given as a SMILES string. The source made the active and inactive calls. No cut-off for these calls is given here.

Chain of Signal transducer and activator of transcription 3 (Homo sapiens) (P40763 whole entry): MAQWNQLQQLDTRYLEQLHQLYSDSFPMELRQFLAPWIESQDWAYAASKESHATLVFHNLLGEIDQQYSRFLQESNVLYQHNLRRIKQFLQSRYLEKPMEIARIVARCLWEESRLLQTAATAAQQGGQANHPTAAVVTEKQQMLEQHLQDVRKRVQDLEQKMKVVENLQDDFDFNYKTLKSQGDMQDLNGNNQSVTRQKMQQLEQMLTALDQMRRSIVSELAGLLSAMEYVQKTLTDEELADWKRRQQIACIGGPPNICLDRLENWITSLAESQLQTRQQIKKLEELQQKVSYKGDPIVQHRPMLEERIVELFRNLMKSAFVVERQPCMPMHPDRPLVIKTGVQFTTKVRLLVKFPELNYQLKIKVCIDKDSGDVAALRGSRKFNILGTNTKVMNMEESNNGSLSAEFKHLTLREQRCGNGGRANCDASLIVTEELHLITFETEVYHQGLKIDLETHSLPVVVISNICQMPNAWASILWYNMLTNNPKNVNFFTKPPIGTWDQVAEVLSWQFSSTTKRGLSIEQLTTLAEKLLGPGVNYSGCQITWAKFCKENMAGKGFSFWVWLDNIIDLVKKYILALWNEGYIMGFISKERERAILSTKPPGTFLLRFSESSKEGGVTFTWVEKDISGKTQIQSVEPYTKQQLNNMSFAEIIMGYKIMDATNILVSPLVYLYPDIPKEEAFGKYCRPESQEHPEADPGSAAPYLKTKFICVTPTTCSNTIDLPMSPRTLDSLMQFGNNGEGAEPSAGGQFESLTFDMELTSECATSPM

One may read the IC50 as the concentration needed to halve the response being measured. Consider `O=C1C(=O)c2c(oc3c2CCN(C(=O)c2cccc(C(F)(F)F)c2)C3)-c2ccccc21`, for which the IC50 in the series with MDA-MB-231 [1] was 12.5 µM; in the series on MDA-MB-468 [2], over 20 µM.
With `C[C@H]1COC2=C1C(=O)C(=O)c1c2ccc2c1CCCC2(C)C` [CRYPTOTANSHINONE], the IC50 in the series with L02, in the series with MDA-MB-231 [1] and with MDA-MB-468 [2] was over 20 µM in each case. In addition, in series [3], the IC50 at 48 h is over 20 µM.
Consider `COC(=O)[C@H](Cc1ccc(O)cc1)N1CCc2c(oc3c2C(=O)C(=O)c2ccccc2-3)C1`, for which the IC50 stood at 7.26 µM in the series on MDA-MB-231 [1] and 14.3 µM in the series on MDA-MB-468 [2].
`O=C1C(=O)c2c(oc3c2CCN(C(=O)c2ccccc2)C3)-c2ccccc21`: the IC50 in the series with L02 is over 20 µM; in the series with MDA-MB-231 [1], 5.71 µM; in the series with MDA-MB-468 [2], 6.86 µM. Besides, in series [3], the IC50 at 48 h was found to be 19.2 µM.
As to `O=C1C(=O)c2c(oc3c2CCNC3)-c2ccccc21`, the IC50 in the series with MDA-MB-231 [1] amounted to 7.11 µM; in the series on MDA-MB-468 [2], 9.23 µM.
In the case of `O=C1C(=O)c2c(oc3c2CCN(C(=O)c2ccc(C(F)(F)F)cc2)C3)-c2ccccc21`, the IC50 in the series on MDA-MB-231 [1] and in the series on MDA-MB-468 [2] was 14.7 µM throughout.
As to `COC(=O)[C@H](Cc1ccccc1)N1CCc2c(oc3c2C(=O)C(=O)c2ccccc2-3)C1`, the results for the IC50 in the series with MDA-MB-231 [1] and with MDA-MB-468 [2] were 8.26 µM and 11.4 µM, respectively.
In the case of `O=C1C(=O)c2c(oc3c2CCN(CCCCO)C3)-c2ccccc21`, the IC50 in the series with MDA-MB-231 [1] worked out at 6.41 µM; in the series with MDA-MB-468 [2], 9.48 µM.
The corresponding values for `COc1ccc(C(=O)N2CCc3c(oc4c3C(=O)C(=O)c3ccccc3-4)C2)cc1` are 17.3 µM and over 20 µM.
Consider `CC(=O)N1CCc2c(oc3c2C(=O)C(=O)c2ccccc2-3)C1`, for which the inhibition result in series [4] and in series [5] was “Active” throughout. The IC50 in the series on L02 is 16.6 µM; in the series with MDA-MB-231 [1] it was 4.57 µM; with MDA-MB-468 [2] it was 3.89 µM. The IC50 at 48 h in series [3] was found to be 17.8 µM.
Consider `CNC(=O)[C@H](Cc1ccc(O)cc1)N1CCc2c(oc3c2C(=O)C(=O)c2ccccc2-3)C1`, for which the IC50 in the series with MDA-MB-231 [1] is 7.26 µM; in the series on MDA-MB-468 [2], 10.4 µM.
On to `O=C1C(=O)c2c(oc3c2CCN(C(=O)c2cccnc2)C3)-c2ccccc21`, for which the IC50 came to 13.3 µM in the series on L02, 5.86 µM with MDA-MB-231 [1] and 5.89 µM in the series on MDA-MB-468 [2]. Moreover, the IC50 at 48 h in series [3] came out at 9.35 µM.
With `COc1ccc(C(=O)N2CCc3c(oc4c3C(=O)C(=O)c3ccccc3-4)C2)cc1OC`, the IC50 came out at 7.43 µM in the series on L02, 4.59 µM in the series with MDA-MB-231 [1] and 5.82 µM with MDA-MB-468 [2]. Besides, the IC50 at 48 h in series [3] worked out at 7.96 µM.
Consider `O=C1C(=O)c2c(oc3c2CCN(CCCO)C3)-c2ccccc21`, for which the inhibition entry in series [4] and in series [5] was “Active” in each case. In addition, the IC50 in the series on L02 turned out to be 15.5 µM; in the series on MDA-MB-231 [1], 2.3 µM; with MDA-MB-468 [2], 2.32 µM. The outcome in the series with MDA-MB-231 [6] and in the series on MDA-MB-468 [7] was Active. The IC50 at 48 h in series [3] came out at 11.1 µM.
Consider `O=C1C(=O)c2c(oc3c2CCN(C(=O)c2ccco2)C3)-c2ccccc21`, for which the IC50 with MDA-MB-231 [1] stood at 12.4 µM; in the series on MDA-MB-468 [2], 12.9 µM.
As for `C[C@@H](CO)N1CCc2c(oc3c2C(=O)C(=O)c2ccccc2-3)C1`, the inhibition result in series [4] and in series [5] was “Active” in each case. Besides, the values for the IC50 in the series on L02, in the series with MDA-MB-231 [1] and in the series with MDA-MB-468 [2] were 7.87 µM, 3.41 µM and 5.42 µM, respectively. The half-maximal inhibitory concentration (IC50) at 48 h in series [3] came to 7.98 µM.
For the molecule `CNC(=O)CCN1CCc2c(oc3c2C(=O)C(=O)c2ccccc2-3)C1`, the inhibition result in series [4] and in series [5] was “Active” each time. Besides, the IC50 with L02 came out at 12.5 µM; with MDA-MB-231 [1], 4.5 µM; with MDA-MB-468 [2], 3.6 µM. Further, the outcome in the series with MDA-MB-231 [6] and with MDA-MB-468 [7] was Active. Also, in series [3], the IC50 at 48 h turned out to be 11 µM.
Regarding `CNC(=O)[C@H](Cc1ccccc1)N1CCc2c(oc3c2C(=O)C(=O)c2ccccc2-3)C1`, the IC50 in the series on MDA-MB-231 [1] was found to be 8.12 µM; in the series with MDA-MB-468 [2], 8.05 µM.
With `COC(=O)CN1CCc2c(oc3c2C(=O)C(=O)c2ccccc2-3)C1`, the IC50 in the series with L02 was found to be 5.46 µM; with MDA-MB-231 [1], 2.5 µM; in the series on MDA-MB-468 [2], 2.42 µM. Further, the IC50 at 48 h in series [3] was determined as 4.89 µM.
In the case of `COC(=O)CCCN1CCc2c(oc3c2C(=O)C(=O)c2ccccc2-3)C1`, the IC50 in the series on MDA-MB-231 [1] was 6.89 µM; in the series on MDA-MB-468 [2], 9.12 µM.
Take `COC(=O)[C@H](C)N1CCc2c(oc3c2C(=O)C(=O)c2ccccc2-3)C1`: the inhibition entry in series [4] and in series [5] was “inactive” throughout. Besides, the IC50 at 48 h in series [3] was 18.2 µM. The IC50 in the series on MDA-MB-231 [1] is 3.14 µM; with MDA-MB-468 [2] it was 2.36 µM.
Take `O=C1C(=O)c2c(oc3c2CCN([C@H](CO)Cc2ccc(O)cc2)C3)-c2ccccc21`: the IC50 in the series with MDA-MB-231 [1] was determined as 13.6 µM; in the series with MDA-MB-468 [2], 13 µM.
On to `COC(=O)CC[C@@H](C(=O)OC)N1CCc2c(oc3c2C(=O)C(=O)c2ccccc2-3)C1`, for which the results for the IC50 in the series with MDA-MB-231 [1] and in the series with MDA-MB-468 [2] were 12.7 µM and 12.2 µM, respectively.
On the same counts, the results for `O=C1C(=O)c2c(oc3c2CCN(C(=O)c2cccs2)C3)-c2ccccc21` are over 20 µM and 12.9 µM.
The corresponding values for `CNC(=O)[C@H](CC(C)C)N1CCc2c(oc3c2C(=O)C(=O)c2ccccc2-3)C1` are 7.99 µM and 7.36 µM.
On the same counts, the results for `COC(=O)[C@H](CC(C)C)N1CCc2c(oc3c2C(=O)C(=O)c2ccccc2-3)C1` are over 20 µM and over 20 µM.
`N#Cc1ccc(C(=O)N2CCc3c(oc4c3C(=O)C(=O)c3ccccc3-4)C2)cc1`: the figures for the IC50 in the series on MDA-MB-231 [1] and with MDA-MB-468 [2] were 14.8 µM and 12.6 µM, respectively.
Regarding `CN(C)c1ccc(C(=O)N2CCc3c(oc4c3C(=O)C(=O)c3ccccc3-4)C2)cc1`, the IC50 in the series with L02, with MDA-MB-231 [1] and in the series on MDA-MB-468 [2] was over 20 µM in each case. Moreover, the IC50 at 48 h in series [3] is over 20 µM.
As to `COC(=O)CCN1CCc2c(oc3c2C(=O)C(=O)c2ccccc2-3)C1`, the IC50 in the series on L02 worked out at 8.51 µM; in the series on MDA-MB-231 [1], 5.72 µM; in the series on MDA-MB-468 [2], 4.13 µM. Also, in series [3], the IC50 at 48 h is 4.55 µM.
`CN(C)C(=O)N1CCc2c(oc3c2C(=O)C(=O)c2ccccc2-3)C1`: the inhibition entry in series [4] and in series [5] was “Active” in each case. For the same molecule, the IC50 was over 20 µM with L02, 4 µM in the series on MDA-MB-231 [1] and 2.35 µM in the series with MDA-MB-468 [2]. Also, the outcome in the series on MDA-MB-231 [6] and in the series on MDA-MB-468 [7] was Active. Also, in series [3], the IC50 at 48 h is over 20 µM.
Regarding `CNC(=O)CCCN1CCc2c(oc3c2C(=O)C(=O)c2ccccc2-3)C1`, the results for the IC50 in the series on MDA-MB-231 [1] and in the series on MDA-MB-468 [2] were 7.45 µM and 9.45 µM, respectively.
Turning to `CC(=O)c1cc2c(o1)C(=O)C(=O)c1ccccc1-2`, the results for the IC50 in the series on L02, in the series with MDA-MB-231 [1] and in the series with MDA-MB-468 [2] were 7.25 µM, 1.43 µM and 2.51 µM, respectively. Moreover, in series [3], the IC50 at 48 h turned out to be 6.23 µM.
On the same counts, the results for `O=C1C(=O)c2c(oc3c2CCN(C(=O)N2CCOCC2)C3)-c2ccccc21` are over 20 µM, 6.43 µM, 5.41 µM and 16.8 µM.
As for `O=C1C(=O)c2c(oc3c2CCN([C@H](CO)Cc2ccccc2)C3)-c2ccccc21`, the IC50 was 9.97 µM with MDA-MB-231 [1] and over 10 µM in the series with MDA-MB-468 [2].
The corresponding values for `O=C1C(=O)c2c(oc3c2CCN(C(=O)c2ccc(Cl)cc2)C3)-c2ccccc21` are 13 µM and 10.7 µM.
The corresponding values for `O=C1C(=O)c2c(oc3c2CCN(C(=O)c2ccc(F)cc2)C3)-c2ccccc21` are 10.9 µM and 12 µM.
The corresponding values for `CN1CCN(C(=O)N2CCc3c(oc4c3C(=O)C(=O)c3ccccc3-4)C2)CC1` are 6.08 µM and 5.84 µM.
Regarding `CNC(=O)[C@H](C)N1CCc2c(oc3c2C(=O)C(=O)c2ccccc2-3)C1`, the inhibition result in series [4] and in series [5] was “Active” throughout. Moreover, the values for the IC50 in the series on L02, in the series with MDA-MB-231 [1] and with MDA-MB-468 [2] were over 20 µM, 4.14 µM and 6.41 µM, respectively. Further, the outcome in the series with MDA-MB-231 [6] and with MDA-MB-468 [7] was Active. Moreover, in series [3], the IC50 at 48 h came out at 17.6 µM.
As for `Cc1ccc(C(=O)N2CCc3c(oc4c3C(=O)C(=O)c3ccccc3-4)C2)cc1`, the IC50 in the series on MDA-MB-231 [1] worked out at 14.2 µM; with MDA-MB-468 [2], 16.9 µM.
`CNC(=O)CN1CCc2c(oc3c2C(=O)C(=O)c2ccccc2-3)C1`: the IC50 was found to be 6.51 µM in the series with MDA-MB-231 [1] and 4.78 µM in the series on MDA-MB-468 [2].
